Legend:
Leishmania donovani [1] = test: Antileishmanial activity against intracellular amastigote stage of Leishmania donovani MHOM/ET/67/L82 infected in mouse J774A1 cells by colorimetric assay; assay type: functional, organism-based; conditions: MHOM/ET/67/L82, J774.A1
Leishmania amazonensis = test: Antileishmanial activity against intracellular amastigote stage of Leishmania amazonensis LV78 infected in mouse J774A1 cells by colorimetric assay; assay type: functional, organism-based; conditions: LV78, J774.A1
[2] = Cytotoxicity against mouse J774A1 cells after 72 hrs by MTT assay; assay type: cell-based; conditions: J774.A1, 72 h
[3] = Selectivity index, ratio of EC50 for mouse J774A1 cells to EC50 for intracellular amastigote stage of Leishmania donovani MHOM/ET/67/L82; assay type: toxicity, cell-based, J774.A1; conditions: read-out: Ratio EC50
[4] = Aqueous solubility of the compound at pH 7.4; assay type: physicochemical; conditions: buffer
[5] = Aqueous solubility of the compound at pH 2; assay type: physicochemical; conditions: buffer
[6] = Distribution coefficient, log D of the compound at pH 7.4; assay type: physicochemical; conditions: octanol/water
[7] = Distribution coefficient, log D of the compound at pH 3; assay type: physicochemical; conditions: octanol/water
[8] = pampa, pH 7.4
Description: (§1) Passive transcellular permeability of the compound at pH 7.4 by PAMPA

[9] = pampa, pH 4
Description: (§2) Passive transcellular permeability of the compound at pH 4 by PAMPA

Leishmania donovani [10] = test: Antileishmanial activity against antimony-resistant clinical isolate Leishmania donovani BPK164/1 infected in mouse J774A1 cells by colorimetric assay; assay type: functional, organism-based; conditions: BPK164/1, J774.A1
[11] = Toxicity in BALB/c mouse assessed as tolerated dose treated ip for 5 consecutive doses; assay type: organism-based; conditions: in vivo
Leishmania donovani [12] = test: Antileishmanial activity against clinical isolate Leishmania donovani BPK206/0 infected in mouse J774A1 cells by colorimetric assay; conditions: BPK206/0, J774.A1
physchem [13] = conditions: pampa, pH 7.4
Description: as §1

physchem [14] = conditions: pampa, pH 4
Description: as §2

Papp (physchem [13]) [×10⁻⁶ cm/s]	Papp (physchem [14]) [×10⁻⁶ cm/s]	SMILES	EC50 (Leishmania donovani [1]) [nM]	EC50 (Leishmania amazonensis) [µM]	EC50 [2] [µM]	selectivity ratio [3]	solubility [4] [µM]	solubility [5] [µM]	logD [6]	logD [7]	permeability [8] [×10⁻⁶ cm/s]	permeability [9] [×10⁻⁶ cm/s]	EC50 (Leishmania donovani [10]) [nM]	MTD at 5 consecutive doses [11] [mg/kg]	EC50 (Leishmania donovani [12]) [nM]
		c1ccc(CNc2nc(NCc3ccccc3)c3ccccc3n2)cc1	670	1.4	5.5	8.2	≤ 5	≤ 20							
		CNc1nc(NCc2ccccc2)c2ccccc2n1	1500	13	18	12	≥ 30	≥ 30	3.14	2.11					
		CCCCNc1nc(NCCCC)c2ccccc2n1	1800	2.1	5.4	3	≤ 10	≥ 30	3.89	2.91	880	485			
		CSCCNc1nc(NC(C)C)nc2ccccc12	4300	5.1	20	4.7	≤ 20	≥ 30	3.02	2.06	1480	28.8			
		CC(C)Nc1nc(NCc2ccco2)c2ccccc2n1	2500	3.7	17	6.8	≥ 30	≥ 30	3.15	2.18	883	62.2			
		FC(F)(F)CNc1nc(NCc2ccco2)c2ccccc2n1	3600	5.8	23	6.4	≤ 10	≥ 30	4.2	2.02	979	67.7			
		OCCNc1nc(NCc2ccco2)c2ccccc2n1	25000	> 50	> 33	> 1.3	≤ 20	≥ 30	2.19	1.48	1130	26.4			
		CC(C)Nc1nc(N(C)C)c2ccccc2n1	8900	19	> 33	> 3.7	≤ 10	≥ 30	3.13	1.64	1120	72.3			
		CC(C)Nc1nc(NCC(F)(F)F)c2ccccc2n1	3700	7.6	> 33	> 8.9	≥ 30	≥ 30	3.19	2.4	780	19.7			
		CC(C)Nc1nc(NC2CCCCC2)c2ccccc2n1	> 50000	> 50			≤ 20								
		CCOC(=O)CNc1nc(NC(C)C)nc2ccccc12	6900	20	> 33	> 4.8	≤ 20	≥ 30	2.54	1.73	744	38.8			
		CC(C)Nc1nc(NCc2ccco2)c2cccc(Cl)c2n1	4400	18	> 33	> 7.5	≤ 5	≥ 30	3.96	2.38	1330	67.6			
		CC(C)Nc1nc(NCc2ccco2)c2ccc(Cl)cc2n1	9000	23	> 100	> 11	≤ 20	≥ 30	3.91	2.51	1380	103			
		CC(C)Nc1nc(NCc2ccco2)c2cc(Cl)ccc2n1	2600	25	> 33	> 13	≤ 20	≥ 30	3.99	2.6	1630	170			
		CC(C)Nc1nc(NCc2ccco2)c2c(Cl)cccc2n1	2300	12	25	11	≤ 10	≥ 30	4.44	2.62	1240	169			
		Cc1cccc2c(NCc3ccco3)nc(NC(C)C)nc12	4200	4.4	> 33	> 7.9	≤ 20	≥ 30	3.55	1.57	666	45.9			
		Cc1ccc2nc(NC(C)C)nc(NCc3ccco3)c2c1	4700	15	> 33	> 7	≤ 20	≥ 30	3.63	1.55	789	67.2			
		Cc1cccc2nc(NC(C)C)nc(NCc3ccco3)c12	950	3.6	20	21	≤ 10	≥ 30	3.55	2.44	812	45.9			
		COc1cccc2c(NCc3ccco3)nc(NC(C)C)nc12	3200	7.3	30	9.4	≤ 20	≥ 30	3.4	2.99	1060	38.4			
		COc1ccc2c(NCc3ccco3)nc(NC(C)C)nc2c1	1200	10	16	13	≤ 20	≥ 30	3.7	3.11	1330	59.2			
		COc1ccc2nc(NC(C)C)nc(NCc3ccco3)c2c1	740	9.6	14	19	≥ 30	≥ 30	3.58	2.95	1010	80.2			
		COc1cccc2nc(NC(C)C)nc(NCc3ccco3)c12	970	2.7	18	19	≤ 20	≥ 30	3.35	2.53	624	87			
		CCCCNc1nc(NCc2ccccc2)c2ccccc2n1	650	1.8	5.1	7.8	≤ 10								
		c1ccc(CNc2nc(Nc3ccccc3)c3ccccc3n2)cc1	260	2.2	5.2	20	≤ 5	≥ 30	4.25	2.67	663	412			
		CNc1nc(NCc2ccccc2)nc2ccccc12	150	0.9	15	100	≤ 10	≥ 30	2.96	2	1720	57.1	2000	30	2800
		c1ccc(CNc2nc(Nc3ccccc3)nc3ccccc23)cc1	640	2.6	6.8	11	≤ 5	≤ 5	4.17	2.78	1480	271			
130	108	NC(=O)N1c2ccccc2C=Cc2ccccc21 [CARBAMAZEPINE]													
		COc1cc([C@@H]2c3cc4c(cc3[C@H](O)[C@H]3COC(=O)[C@H]23)OCO4)cc(OC)c1OC [PODOFILOX]			0.25										
5.2	2.2	CNC(=C[N+](=O)[O-])NCCSCc1ccc(CN(C)C)o1.Cl [RANITIDINE HYDROCHLORIDE]													

Reference: ChEMBL document CHEMBL3286201, “Antileishmanial activity of a series of N²,N⁴-disubstituted quinazoline-2,4-diamines” (J Med Chem, 2014)
